# Data: patent publication US20150342194A1, “NON-PHYTOTOXIC COMPOSITE POLYMER FILM BARRIER AS A REPELLENT FOR CONTROLLING INFECTION” (priority 2014, published 2015)
# Experiments:
# Tomato sp = experiment: Phytotoxicity testing on Tomato sp; assay type: in vivo; set-up: key: −: No plant tissue damage; +: Minimal; ++: moderate; +++: severe plant tissue damage
# From the text: (§1) Tables 2 and 3, Example 2, illustrate phytotoxicity testing of embodiments of the present disclosure.
# Citrus (Persian Lime) = experiment: Phytotoxicity testing on Citrus (Persian Lime); assay type: in vivo; set-up: key: −: No plant tissue damage; +: Minimal; ++: moderate; +++: severe plant tissue damage
# From the text: as §1
# Vinca sp = experiment: Phytotoxicity (plant tissue injury) testing on Vinca sp.; assay type: in vivo; set-up: key: −: No plant tissue damage; +: Minimal; ++: moderate; +++: severe plant tissue damage
# Description: FIGS. 2A to 2C illustrate phytotoxicity (plant tissue injury) results. FIG. 2A illustrates untreated, FIG. 2B illustrates OSCF nanoparticle, and FIG. 2C illustrates OSCF nanogel film materials, sprayed on Vinca. sp. Under green-house conditions, approximately 5 mL of synthesized formula was sprayed on plants at 7:30 AM on the test day. After 72 hrs, all treatments were non-phytotoxic (−) to plants.
# FIG. 1 illustrates digital photographs of some representative citrus leaf surfaces before and after rigorous spray washing with water (simulating over 6 inches of rainfall). Phytotoxicity studies were carried out using Vinca sp. (an ornamental plant, highly susceptible to phytotoxicity; purchased from Home Depot).
# as §1
# [1] = system: Asian Citrus Psyllid (ACP, Diaphorina citri); conditions: field trials, literature [7-9]; cited from earlier work
# [2] = system: Asian Citrus Psyllid (ACP, Diaphorina citri); conditions: chemical repellants, literature [11-13]; cited from earlier work
compound,measurement,setting,value
O=S(=O)([O-])[O-].[Cu+2] [CuSO4],"Phytotoxicity, plant tissue damage",Tomato sp; 24 hr,+
same,"Phytotoxicity, plant tissue damage",Tomato sp; 48 hr,++
same,"Phytotoxicity, plant tissue damage",Tomato sp; 72 hr,+++
same,"Phytotoxicity, plant tissue damage",Citrus (Persian Lime); 24 hr,+
same,"Phytotoxicity, plant tissue damage",Citrus (Persian Lime); 48 hr,++
same,"Phytotoxicity, plant tissue damage",Citrus (Persian Lime); 72 hr,+++
same,"Phytotoxicity, plant tissue damage","Vinca sp; 24 hr, Table 2",+
same,"Phytotoxicity, plant tissue damage","Vinca sp; 24 hr, Table 3",+
same,"Phytotoxicity, plant tissue damage","Vinca sp; 48 hr, Table 2",++
same,"Phytotoxicity, plant tissue damage","Vinca sp; 48 hr, Table 3",++
same,"Phytotoxicity, plant tissue damage","Vinca sp; 72 hr, Table 2",+++
same,"Phytotoxicity, plant tissue damage","Vinca sp; 72 hr, Table 3",+++
CCOP(=S)(OCC)Oc1nc(Cl)c(Cl)cc1Cl [chlorpyrifos],Controlling ACP populations,[1],effective in controlling ACP populations
CN/C(=N\[N+](=O)[O-])NCc1cnc(Cl)s1 [clothianidin],Controlling ACP populations,[1],effective in controlling ACP populations
"CSSC [dimethyldisulfide (DMDS), dimethyldisulfide]",ACP repellant properties,[2],moderate ACP repellant properties
CC1(C)C(C(=O)OC(C#N)c2cccc(Oc3ccccc3)c2)C1(C)C (stereo not drawn) [fenpropathrin],Controlling ACP populations,[1],effective in controlling ACP populations
O=[N+]([O-])NC1=NCCN1Cc1ccc(Cl)nc1 [imidacloprid],Controlling ACP populations,[1],effective in controlling ACP populations
CN1COCN(Cc2cnc(Cl)s2)/C1=N\[N+](=O)[O-] [thiamethoxam],Controlling ACP populations,[1],effective in controlling ACP populations
